Data on three compounds can be found in US20250049830A1, “PHARMACEUTICAL COMPOSITION FOR PREVENTING OR TREATING CANCER, COMPRISING SGLT-2 INHIBITOR AND GOSSYPOL” (HAIM BIO., LTD., priority 2019, published 2025).

Entries after “also recorded” stand apart in the source; their conditions may differ.

What all share (type): cell-based, human
One assay concerns U87 tumor spheroids. Nature of the assay: Tumor spheroid size/diameter of U87 cell line after drug administration. The conditions noted are these: for size of the tumor spheroid cells (cell photographs): 14 days, gossypol 5 μM, phenformin 10 μM; for size of the cells (cell photographs): SGLT-2 inhibitor alone or in combination with gossypol and phenformin, FIG. 9. As to the method: The U87 cell line cells prepared according to the method of Example 1 were seeded into a 96-well plate at a density of 1.0×10^2 cells/well in DMEM media containing 2% Matrigel (Corning, NY, USA), and stabilized in a 5% CO2 incubator at 37° C. for 3 days to form tumor spheroids. After stabilization, the cells were cultured in a 5% CO2 incubator at 37° C. for 14 days. […] Referring to FIGS. 6b, 7b and 8b, the rate of change in diameter of the spheroid in the graph was calculated as a percentage based on the change in the average diameter after administration of each drug compared to the average diameter of tumor spheroid cells seeded in the 96-well plate.

The test system of assay [1] is pancreatic cancer cell line Mia Paca-2. In words: Cell viability (Cell Counting Kit-8) of pancreatic cancer cell line Mia Paca-2 after drug treatment. The conditions noted are these: SGLT-2 inhibitor with gossypol and/or phenformin, FIGS. 2b, 2c.
Protocol: (§1) Each of the cell lines was cultured according to the ATCC guidelines in 10% FBS-containing RPMI 1640, DMEM, or Eagle's MEM medium supplemented with 1% penicillin-streptomycin (Gibco) in a 5% CO2 incubator (HERAcell 150i, Thermo Scientific, Waltham, MA, USA) at 37° C. and was used in the experiment.
At the same time, the number of cells in each sample was measured with a cell viability assay kit (Cell Counting Kit-8), and the measured value was calculated as a percentage of the number of cells in the negative control group to compare the number of cells between the samples. All experiments were repeated several times and the measured values were averaged. […] The numerical values on the drawings according to all examples below are expressed as mean±standard error of the mean (SEM), and * indicates statistical significance (**P<0.01, ***P<0.001).
According to the methods of Example 1 and Example 2, the pancreatic cancer cell line Mia Paca-2 cells were cultured, and then each drug was administered to the cells, followed by analysis of the cell viability.
For assay [2], the system named is lung cancer cell line A549. In words: Cell viability (Cell Counting Kit-8) of lung cancer cell line A549 after drug treatment. The conditions noted are these: SGLT-2 inhibitor 50 μM, gossypol 5 μM, phenformin 10 μM, FIG. 1c.
Protocol: as §1
The lung cancer cell line A549 cells prepared by the method of Example 1 were seeded into a 96-well plate at a concentration of 1×10^4 cells/well and cultured overnight at 37° C. in a 5% CO2 environment. […]
Thereafter, 100 μL of each cell culture and 10 μL of incubation buffer (CCK) were mixed together, placed in a 96-well plate, and incubated at room temperature for 1 hour, and then the absorbance was measured at a wavelength of 450 nm using a spectrophotometer (Synergy HTX Multi-Reader, BioTek, Winooski, VT, USA). At the same time, the number of cells in each sample was measured with a cell viability assay kit (Cell Counting Kit-8), and the measured value was calculated as a percentage of the number of cells in the negative control group to compare the number of cells between the samples. All experiments were repeated several times and the measured values were averaged.
In assay [3] the test system is brain cancer cell line U87. In words: Cell viability (Cell Counting Kit-8) of brain cancer cell line U87 after drug treatment. The conditions noted are these: SGLT-2 inhibitor with gossypol and phenformin, FIGS. 3b, 3c.
Protocol: The present inventors obtained the human lung cancer cell line A549, the pancreatic cancer cell line Mia Paca-2, the brain cancer cell line U87, and the colon cancer cell line SW480 from the American Type Culture Collection (ATCC). Each of the cell lines was cultured according to the ATCC guidelines in 10% FBS-containing RPMI 1640, DMEM, or Eagle's MEM medium supplemented with 1% penicillin-streptomycin (Gibco) in a 5% CO2 incubator (HERAcell 150i, Thermo Scientific, Waltham, MA, USA) at 37° C. and was used in the experiment.
At the same time, the number of cells in each sample was measured with a cell viability assay kit (Cell Counting Kit-8), and the measured value was calculated as a percentage of the number of cells in the negative control group to compare the number of cells between the samples. All experiments were repeated several times and the measured values were averaged.
According to the methods of Example 1 and Example 2, the brain cancer cell line U87 cells were cultured, and then each drug was administered to the cells, followed by analysis of the cell viability.
Assay [4] deals with lung cancer line A549 cells. In words: Oxygen consumption rate (OCR) during mitochondrial respiration, Seahorse XF24, A549. As to conditions: SGLT-2 inhibitor 50 μM, gossypol 5 μM, phenformin 10 μM, alone or in combination, overnight, FIG. 10. As to the method:
In order to measure mitochondrial respiration, which is the main energy metabolic process of cells, the present inventors analyzed cellular oxygen consumption rate (OCR) by measuring intracellular oxygen concentration. The oxygen consumption rate that occurs during energy metabolism can be a measure of how actively cancer cell division occurs during the metabolic process of cancer cells. 1 mL of XF Calibrant buffer (Agilent Technologies) was added to a sensor cartridge (Agilent Technologies, Palo Alto, CA, USA) and incubated in a non-CO2 incubator overnight at 37° C. […] In addition, the XF24 microplate was placed in the Agilent seahorse XF24 (Agilent Technologies) instrument, and OCR was measured. Here, the measured values were compared with percentage values based on picomoles per minute (pM/min).

The mark [5] stands for this setting: Comparative Example 1: canagliflozin 50 μM, FIG. 6a.
The mark [6] stands for this setting: Comparative Example 3: empagliflozin 75 μM, FIG. 8a.

As for `Cc1ccc([C@@H]2O[C@H](CO)[C@@H](O)[C@H](O)[C@H]2O)cc1Cc1ccc(-c2ccc(F)cc2)s1` [canagliflozin], the “size of the tumor spheroid cells (cell photographs)” value (“size of the tumor spheroid cells” for short) in the assay on U87 tumor spheroids (setting [5]) is recorded as “decreased”. In addition, in the assay on U87 tumor spheroids, the “size of the cells (cell photographs)” value is listed as “decreased compared to that in the control group; also recorded: most significant reduction in the cell size”. For the same compound, the results for the “cancer therapeutic effect of co-administration compared to SGLT-2 inhibitor alone” value in assay [1] and in assay [3] were “more effective” and “better effect”, respectively. For the same compound, the “synergistic effect when administered in combination with gossypol and phenformin” value in assay [2] is given as “highest synergistic effect”.
On to `OC[C@H]1O[C@@H](c2ccc(Cl)c(Cc3ccc(O[C@H]4CCOC4)cc3)c2)[C@H](O)[C@@H](O)[C@@H]1O` [empagliflozin], for which the “size of the tumor spheroid cells” value in the assay with U87 tumor spheroids (setting [6]) is recorded as “decreased”. In the assay with U87 tumor spheroids, the “size of the cells (cell photographs)” value was “decreased compared to that in the control group”. For the same compound, the oxygen consumption rate result in assay [4] is reported as “also low”.
Regarding `[H]/N=C(/N)N/C(=N/[H])NCCc1ccccc1` [phenformin], the “size of the tumor spheroid cells” value with U87 tumor spheroids (setting [5]) is reported as “decreased”; in the assay on U87 tumor spheroids (Comparative Example 2: dapagliflozin 75 μM, FIG. 7a), “decreased”; with U87 tumor spheroids (setting [6]) it was “decreased”.
